Data: ChEMBL document CHEMBL4020733, “Approaches towards the development of chimeric DPP4/ACE inhibitors for treating metabolic syndrome” (Bioorg Med Chem Lett, 2017)

Assays:
[1] = Plasma protein binding in rat; assay type: ADME, cell-free; details: read-out: PPB (converted)
[2] = target: Dipeptidyl peptidase 4 (Homo sapiens, UniProt P27487); test: Inhibition of human plasma DPP4
[3] = Plasma protein binding in human; assay type: ADME, cell-free; details: read-out: PPB (converted)
[4] = Plasma protein binding in mouse; assay type: ADME, cell-free; details: read-out: PPB (converted)
[5] = Inhibition of APP (unknown origin); parameters: species or system Homo sapiens
[6] = target: Aminopeptidase N (Homo sapiens, UniProt P15144); test: Inhibition of APN (unknown origin)
[7] = target: Neprilysin (Homo sapiens, UniProt P08473); test: Inhibition of NEP (unknown origin)
[8] = target: Angiotensin-converting enzyme (Homo sapiens, UniProt P12821); test: Inhibition of human plasma ACE
Sequence of Angiotensin-converting enzyme (P12821 whole entry): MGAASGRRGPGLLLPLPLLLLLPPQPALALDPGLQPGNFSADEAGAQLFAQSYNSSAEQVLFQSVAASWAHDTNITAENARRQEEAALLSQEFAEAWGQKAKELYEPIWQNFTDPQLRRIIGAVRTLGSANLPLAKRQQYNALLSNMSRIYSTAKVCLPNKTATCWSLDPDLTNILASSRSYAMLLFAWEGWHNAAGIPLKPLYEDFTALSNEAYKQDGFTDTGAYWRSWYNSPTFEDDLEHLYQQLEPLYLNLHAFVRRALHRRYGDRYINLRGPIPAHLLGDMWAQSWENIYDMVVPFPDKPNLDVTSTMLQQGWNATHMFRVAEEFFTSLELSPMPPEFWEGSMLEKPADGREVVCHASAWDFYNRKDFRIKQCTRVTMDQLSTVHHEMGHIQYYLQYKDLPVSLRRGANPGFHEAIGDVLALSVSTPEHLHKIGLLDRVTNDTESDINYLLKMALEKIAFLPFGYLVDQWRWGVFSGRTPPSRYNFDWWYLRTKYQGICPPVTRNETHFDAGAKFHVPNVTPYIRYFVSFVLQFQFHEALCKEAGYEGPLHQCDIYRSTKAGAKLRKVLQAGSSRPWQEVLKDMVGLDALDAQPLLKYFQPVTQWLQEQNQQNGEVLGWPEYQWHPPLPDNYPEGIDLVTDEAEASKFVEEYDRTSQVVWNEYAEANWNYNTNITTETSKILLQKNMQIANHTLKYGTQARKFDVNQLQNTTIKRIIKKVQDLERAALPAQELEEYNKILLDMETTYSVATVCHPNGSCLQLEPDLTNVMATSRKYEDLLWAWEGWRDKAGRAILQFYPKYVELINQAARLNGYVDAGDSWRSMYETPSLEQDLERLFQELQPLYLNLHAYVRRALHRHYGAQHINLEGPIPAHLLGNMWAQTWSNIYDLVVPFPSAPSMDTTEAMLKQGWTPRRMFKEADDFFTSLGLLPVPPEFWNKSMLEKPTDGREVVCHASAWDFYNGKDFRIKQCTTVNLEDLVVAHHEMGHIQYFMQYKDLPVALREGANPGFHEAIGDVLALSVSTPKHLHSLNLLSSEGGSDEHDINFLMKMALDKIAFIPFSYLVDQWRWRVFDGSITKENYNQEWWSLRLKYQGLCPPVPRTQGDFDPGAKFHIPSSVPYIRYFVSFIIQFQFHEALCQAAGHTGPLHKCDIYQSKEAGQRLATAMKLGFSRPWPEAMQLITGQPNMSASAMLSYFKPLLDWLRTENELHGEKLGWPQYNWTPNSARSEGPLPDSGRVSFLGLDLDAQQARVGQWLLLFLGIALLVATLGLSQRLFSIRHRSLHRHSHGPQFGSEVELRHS

Sequence of Aminopeptidase N (P15144 whole entry): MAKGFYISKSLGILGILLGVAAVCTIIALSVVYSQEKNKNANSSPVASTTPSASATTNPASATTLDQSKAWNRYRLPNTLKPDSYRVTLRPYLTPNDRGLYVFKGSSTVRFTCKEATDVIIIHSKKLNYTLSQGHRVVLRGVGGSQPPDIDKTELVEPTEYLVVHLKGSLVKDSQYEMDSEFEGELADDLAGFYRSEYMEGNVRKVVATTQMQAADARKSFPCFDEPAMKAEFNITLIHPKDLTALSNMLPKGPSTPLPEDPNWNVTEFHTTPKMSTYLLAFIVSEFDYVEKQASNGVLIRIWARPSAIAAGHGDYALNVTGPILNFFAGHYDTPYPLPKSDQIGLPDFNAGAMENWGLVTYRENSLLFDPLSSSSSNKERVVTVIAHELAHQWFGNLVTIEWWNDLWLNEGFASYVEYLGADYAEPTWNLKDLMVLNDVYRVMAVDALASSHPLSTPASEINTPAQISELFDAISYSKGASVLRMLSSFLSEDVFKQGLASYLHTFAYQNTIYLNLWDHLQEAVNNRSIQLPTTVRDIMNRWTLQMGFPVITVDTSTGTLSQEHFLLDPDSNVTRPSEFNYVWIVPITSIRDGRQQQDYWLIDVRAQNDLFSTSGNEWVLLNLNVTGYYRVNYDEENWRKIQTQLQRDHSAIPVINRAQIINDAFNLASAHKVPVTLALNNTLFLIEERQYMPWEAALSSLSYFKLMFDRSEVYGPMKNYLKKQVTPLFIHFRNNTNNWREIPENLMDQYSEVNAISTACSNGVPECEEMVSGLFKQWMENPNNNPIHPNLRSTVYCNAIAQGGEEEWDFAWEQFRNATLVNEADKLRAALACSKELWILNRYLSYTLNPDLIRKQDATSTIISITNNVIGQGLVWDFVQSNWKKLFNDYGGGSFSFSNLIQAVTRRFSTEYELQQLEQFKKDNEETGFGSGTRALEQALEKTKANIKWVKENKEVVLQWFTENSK
Sequence of Dipeptidyl peptidase 4 (P27487 whole entry): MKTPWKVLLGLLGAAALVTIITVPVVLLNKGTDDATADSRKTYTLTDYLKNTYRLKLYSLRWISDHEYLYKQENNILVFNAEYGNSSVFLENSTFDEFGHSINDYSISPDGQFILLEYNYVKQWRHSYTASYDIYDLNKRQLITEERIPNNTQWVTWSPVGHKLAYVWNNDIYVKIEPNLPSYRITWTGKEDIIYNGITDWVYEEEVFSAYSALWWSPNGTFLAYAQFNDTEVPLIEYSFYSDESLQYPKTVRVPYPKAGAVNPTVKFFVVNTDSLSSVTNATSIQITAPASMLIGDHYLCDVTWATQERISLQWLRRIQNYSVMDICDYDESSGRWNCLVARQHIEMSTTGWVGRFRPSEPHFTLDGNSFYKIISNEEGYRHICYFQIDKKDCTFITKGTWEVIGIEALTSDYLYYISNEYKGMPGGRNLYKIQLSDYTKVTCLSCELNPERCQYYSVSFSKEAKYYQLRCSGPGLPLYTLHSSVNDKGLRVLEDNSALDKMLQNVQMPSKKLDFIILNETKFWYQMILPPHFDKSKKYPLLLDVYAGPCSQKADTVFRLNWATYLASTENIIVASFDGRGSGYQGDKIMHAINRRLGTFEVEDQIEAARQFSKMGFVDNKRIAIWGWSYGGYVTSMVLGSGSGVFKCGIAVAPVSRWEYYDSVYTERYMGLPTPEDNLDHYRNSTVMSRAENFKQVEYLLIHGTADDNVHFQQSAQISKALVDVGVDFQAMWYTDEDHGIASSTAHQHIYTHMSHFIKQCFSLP
Sequence of Neprilysin (P08473 whole entry): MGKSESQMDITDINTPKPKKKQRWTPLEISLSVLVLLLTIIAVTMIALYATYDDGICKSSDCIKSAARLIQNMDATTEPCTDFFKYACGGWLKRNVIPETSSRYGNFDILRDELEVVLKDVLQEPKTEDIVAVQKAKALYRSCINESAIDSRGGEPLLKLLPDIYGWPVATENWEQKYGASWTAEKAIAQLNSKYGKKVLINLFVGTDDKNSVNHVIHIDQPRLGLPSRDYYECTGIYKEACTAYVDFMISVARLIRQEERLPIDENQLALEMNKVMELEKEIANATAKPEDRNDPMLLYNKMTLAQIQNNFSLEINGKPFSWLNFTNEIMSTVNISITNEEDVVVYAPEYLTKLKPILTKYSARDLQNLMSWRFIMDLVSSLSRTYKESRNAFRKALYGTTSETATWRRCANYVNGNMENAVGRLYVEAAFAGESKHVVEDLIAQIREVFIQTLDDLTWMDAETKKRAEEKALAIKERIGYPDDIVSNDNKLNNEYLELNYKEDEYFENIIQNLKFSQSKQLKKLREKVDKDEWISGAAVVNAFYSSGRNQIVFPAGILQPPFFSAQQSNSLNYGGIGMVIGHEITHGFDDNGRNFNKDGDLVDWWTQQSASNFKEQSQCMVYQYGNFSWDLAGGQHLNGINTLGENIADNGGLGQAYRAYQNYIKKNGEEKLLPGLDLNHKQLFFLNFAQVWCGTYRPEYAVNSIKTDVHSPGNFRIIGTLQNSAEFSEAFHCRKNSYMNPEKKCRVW

Row | Structure (SMILES) | fraction unbound [1] | IC50 [2] [µM] | fraction unbound [3] | fraction unbound [4] | IC50 [5] [µM] | IC50 [6] [µM] | IC50 [7] [µM] | IC50 [8] [µM]
1 | C[C@H](N[C@@H](CCc1ccccc1)C(=O)O)C(=O)N1CCC[C@H]1C(=O)O [ENALAPRILAT ANHYDROUS] | 0.456 | > 100 | 0.341 | 0.424 | – | – | – | –
2 | N[C@@H](CC(=O)N1CCn2c(nnc2C(F)(F)F)C1)Cc1cc(F)c(F)cc1F [SITAGLIPTIN] | 0.587 | – | 0.53 | 0.707 | > 100 | > 100 | > 100 | 11
